Measured values taken from the supplement of paper PMC10307832.

How the values were obtained:
Assay in all cases: relative viability (nuclei count vs DMSO), 5 days (fraction); higher = more cells survive
ChaGo-K-1 = test system: ChaGo-K-1
Summary of the method: (§1)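 Dosing by pin tool came one day after lung cancer cell lines were seeded in 1536-well plates, using either one drug or a fixed anchor-drug dose plus five library-drug doses (not always all listed) in √10 steps. After 5 days, nuclei were counted on 4× images. Relative viability is treated-well nuclei count divided by vehicle-well nuclei count, and values are medians of duplicate plates.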

NCI-H2087 = test system: NCI-H2087
Summary of the method: as §1

NCI-H1793 = test system: NCI-H1793
Summary of the method: as §1

NCI-H460 = test system: NCI-H460
Summary of the method: as §1

NCI-H1651 = test system: NCI-H1651
Summary of the method: as §1

RERF-LC-KJ = test system: RERF-LC-KJ
Summary of the method: as §1

LU99A = test system: LU99A
Summary of the method: as §1

NCI-H1755 = test system: NCI-H1755
Summary of the method: as §1

NCI-H1944 = test system: NCI-H1944
Summary of the method: as §1

HCC-366 = test system: HCC-366
Summary of the method: as §1

PC-3 [JPC-3] = test system: PC-3 [JPC-3]
Summary of the method: as §1

## Nc1ccn([C@@H]2O[C@H](CO)[C@@H](O)[C@@H]2O)c(=O)n1 [Cytarabine] + N=C(N)NC(=N)NCCc1ccccc1 [Phenformin] (partner 250 µM)
ChaGo-K-1; first compound 0.005 µM
  relative viability: 0.421
ChaGo-K-1; first compound 0.01581 µM
  relative viability: 0.342
ChaGo-K-1; first compound 0.05 µM
  relative viability: 0.323
ChaGo-K-1; first compound 0.1581 µM
  relative viability: 0.176
ChaGo-K-1; first compound 0.5 µM
  relative viability: 0.181
NCI-H2087; first compound 0.005 µM
  relative viability: 0.384
NCI-H2087; first compound 0.01581 µM
  relative viability: 0.308
NCI-H2087; first compound 0.05 µM
  relative viability: 0.373
NCI-H2087; first compound 0.1581 µM
  relative viability: 0.229
NCI-H2087; first compound 0.5 µM
  relative viability: 0.131
NCI-H1793; first compound 0.005 µM
  relative viability: 0.359
NCI-H1793; first compound 0.01581 µM
  relative viability: 0.34
NCI-H1793; first compound 0.05 µM
  relative viability: 0.284
NCI-H1793; first compound 0.1581 µM
  relative viability: 0.251
NCI-H1793; first compound 0.5 µM
  relative viability: 0.216
NCI-H460; first compound 0.005 µM
  relative viability: 0.309
NCI-H460; first compound 0.01581 µM
  relative viability: 0.248
NCI-H460; first compound 0.05 µM
  relative viability: 0.114
NCI-H460; first compound 0.1581 µM
  relative viability: 0.0419
NCI-H460; first compound 0.5 µM
  relative viability: 0.0341
NCI-H1651; first compound 0.005 µM
  relative viability: 0.304
NCI-H1651; first compound 0.01581 µM
  relative viability: 0.346
NCI-H1651; first compound 0.05 µM
  relative viability: 0.319
NCI-H1651; first compound 0.1581 µM
  relative viability: 0.2
NCI-H1651; first compound 0.5 µM
  relative viability: 0.18
RERF-LC-KJ; first compound 0.005 µM
  relative viability: 0.381
RERF-LC-KJ; first compound 0.01581 µM
  relative viability: 0.369
RERF-LC-KJ; first compound 0.05 µM
  relative viability: 0.308
RERF-LC-KJ; first compound 0.1581 µM
  relative viability: 0.298
RERF-LC-KJ; first compound 0.5 µM
  relative viability: 0.274
LU99A; first compound 0.005 µM
  relative viability: 1.07
LU99A; first compound 0.01581 µM
  relative viability: 0.747
LU99A; first compound 0.05 µM
  relative viability: 0.871
LU99A; first compound 0.1581 µM
  relative viability: 0.775
LU99A; first compound 0.5 µM
  relative viability: 0.808
NCI-H1755; first compound 0.005 µM
  relative viability: 0.621
NCI-H1755; first compound 0.01581 µM
  relative viability: 0.413
NCI-H1755; first compound 0.05 µM
  relative viability: 0.466
NCI-H1755; first compound 0.1581 µM
  relative viability: 0.274
NCI-H1755; first compound 0.5 µM
  relative viability: 0.236
NCI-H1944; first compound 0.005 µM
  relative viability: 0.166
NCI-H1944; first compound 0.01581 µM
  relative viability: 0.184
NCI-H1944; first compound 0.05 µM
  relative viability: 0.14
NCI-H1944; first compound 0.1581 µM
  relative viability: 0.106
NCI-H1944; first compound 0.5 µM
  relative viability: 0.103
HCC-366; first compound 0.005 µM
  relative viability: 0.617
HCC-366; first compound 0.01581 µM
  relative viability: 0.586
HCC-366; first compound 0.05 µM
  relative viability: 0.528
HCC-366; first compound 0.1581 µM
  relative viability: 0.2
HCC-366; first compound 0.5 µM
  relative viability: 0.0951
PC-3 [JPC-3]; first compound 0.005 µM
  relative viability: 0.493
PC-3 [JPC-3]; first compound 0.01581 µM
  relative viability: 0.468
PC-3 [JPC-3]; first compound 0.05 µM
  relative viability: 0.418
PC-3 [JPC-3]; first compound 0.1581 µM
  relative viability: 0.346
PC-3 [JPC-3]; first compound 0.5 µM
  relative viability: 0.358
